# Measured values published in BindingDB's records for doi:10.1016/j.bmc.2017.03.072 (Ewha Womans University, 2017).
# Molecular target: Interleukin-6 (Human, UniProt P05231)
# Experiment: ChEBML_1684684
# Method: Inhibition of IL-6 signaling pathway in human HepG2 cells transfected with p-STAT3-Luc assessed as reduction in IL-6 induced STAT3 phosphorylation preincubated for 1 hr followed by IL-6 induction measured after 10 mins by immunoblot analysis
# Sequence of Interleukin-6 (P05231 whole entry): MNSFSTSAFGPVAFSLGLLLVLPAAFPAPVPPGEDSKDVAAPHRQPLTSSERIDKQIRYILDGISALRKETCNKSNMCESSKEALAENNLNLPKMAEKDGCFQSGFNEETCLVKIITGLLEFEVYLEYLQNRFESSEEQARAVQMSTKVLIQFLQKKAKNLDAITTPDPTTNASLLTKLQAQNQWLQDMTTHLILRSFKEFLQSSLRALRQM
row,IC50 [µM],SMILES
1,20.7,C=C1C(C)=C(CCCC)C(=O)[C@]1(C)CN1c2ccccc2[C@]2(O)CCO[C@H]12
2,18.9,CCc1ccc(Nc2nc3cc(N)ccc3o2)cc1
3,5.8,CCc1ccc(Nc2nc3cc(NC(=O)c4ccccc4)ccc3o2)cc1
